From patent US20130338574A1, “ORAL MEDICINAL COMPOSITION FOR PATIENTS UNDERGOING PERITONEAL DIALYSIS AND METHOD FOR USING SAME” (TOKAI UNIVERSITY EDUCATIONAL SYSTEM, priority 2010, published 2013)

Test system: dicarbonyl compounds (3-deoxyglucosone) in the intraperitoneal fluid
Assay: 3-deoxyglucosone in intraperitoneal fluid of uremic rat models, neutral peritoneal dialysis fluid (Experimental Example 3)
Assay type: in vivo, rats
Conditions: oral 30 mg/rat/day, 7 days
Excerpt: Kidney subtotal excision rats with chronic renal failure (uremic rat models) were produced in the same manner as in Experimental Example 2. Distilled water for injection was orally administered compulsorily to Group 1 (control group) (n=3) once a day, and the pyridoxamine salt aqueous solution was orally administered compulsorily to Group 2 (pyridoxamine salt orally administered group) once a day. On the 6th day of administration, after distilled water for injection and the pyridoxamine salt aqueous solution were orally administered, respectively, to Groups 1 and 2, 20 ml of a neutral peritoneal dialysis fluid (pH 6.5 to 7.5) to be mixed before use (trade name: Dianeal (registered trademark)-N PD-4-1.5 mixture; Baxter Limited) (Table 1) was injected intraperitoneally to both groups, in place of the acid peritoneal dialysis fluid administered in Experimental Example 2. As explained in Experimental Example 1, the peritoneal dialysis fluid was composed of an upper-compartment solution and a lower-compartment solution separated by a partition, and both solutions were mixed immediately before being injected into the peritoneal cavity. […] The concentration of dicarbonyl compounds (3-deoxyglucosone) in the intraperitoneal fluid of each group was measured by HPLC in the same manner as in Experimental Example 2.

Cc1ncc(CO)c(CN)c1O.Cl.Cl [pyridoxamine dihydrochloride, Pyridoxamine dihydrochloride]
3-deoxyglucosone concentration in the peritoneal cavity relative to control group (neutral peritoneal dialysis fluid): less than one-half
3-deoxyglucosone concentration in intraperitoneal fluid (neutral peritoneal dialysis fluid (pH 6.5 to 7.5) Dianeal-N PD-4-1.5 mixture, 20 ml i.p., control group 23.4): 10.3 µg/mL
